Consider two molecules from US20110086872A1, “Berberine as a selective lung cancer agent and other compositions and methods” (priority 2007, published 2011).

The subject of data set [1] is W2 clone of P. falciparum. Nature of the data set: Antimalarial activity, W2 clone. It counts as cell-based. As to the method:
(§1) The plant partitions were evaluated using in vitro bioassays based on a panel of human cancer cell lines: BC, Human Breast; Col2, Human Colon; KB, Human Carcinoma of the Nasopharynx; KBV1, Vinblastine-resistant KB; LNCaP, Hormone-dependent Human Prostate, and ZR75-1, Hormone-dependent Human Breast. These lines represent the main priorities for anticancer screening of the National Cancer Institute and have been well documented (Lin et al., J. Nat. Prod. 56: 22-29 (1993). In addition, samples were evaluated against the HIV-1 reverse transcriptase assay and, if active, against HIV-2 RT assay and a TIBO-resistant HIV-1 strain. Furthermore, some samples were tested for antimalarial activity (Angerhofer, Advances in Natural Products Chemistry, ed. Atta-ur-Rahman, pp 311-329 (1992)).
(§2) Thus, extracts, fractions and isolated compounds of plants were evaluated against three basic disease states: cancer, AIDS and malaria according to the published and established protocols and procedures. […] ((Angerhofer, Advances in Natural Products Chemistry, ed. Atta-ur-Rahman, pp 311-329 (1992), Monks et al., J. Nat'l Cancer Inst. 83: 11, 757-766 (1991), Tan et al., J. Nat. Product 54:143-154 (1991), Tan et al., Biochem. Biophysics. Res. Commun. 185:370-378 (1992), Geran et al., Cancer Chemother. Rep., Part 3, 3: 1-17 (1972), Skehan et al., J. Nat'l Cancer Inst. 82:1107-1112 (1990).) […]

Data set [2] has as its system W2 clone of P. falciparum. Particulars: Vennestrom and Klayman, 1988; read-out: literature IC50 against W2 clone of P. falciparum; cited from earlier work.
The subject of data set [3] is Breast, BC1 human cancer cell line. Particulars: cited from earlier work.
In data set [4] the test system is Lu1 human lung cancer cell line. Nature of the data set: Cytotoxic activity against Lu1 cancer cell line. The class given is cell-based. Particulars: pure isolates. The method, then:
The CHCl3 was fractionated over a silica gel column (5×60 cm, 700 g, 63-200 μm). For the column chromatography, a CHCl3/MeOH gradient solvent system was applied with a gradual increase of the MeOH content. Fourteen fractions were collected based on the similarity of their TLC profiles. The fractions were then evaluated for their cytotoxic activity against Lu1 cancer cell line in order to determine the active fractions. […] (See FIG. 4, Table 2).

Data set [5] relates to D6 clone of P. falciparum. Nature of the data set: Antimalarial activity, D6 clone. The class given is cell-based. The method, then:
as §1, §2

In data set [6] the test system is Lung, Lu1 human cancer cell line. Particulars: cited from earlier work.
Data set [7] has as its system human cancer cell lines tested. Kind of data set: Cytotoxic activity against panel of human cancer cell lines. The class given is cell-based.
Data set [8] deals with T1, human immunodeficiency virus-1 reverse transcriptase (HIV-1 RT) (Human immunodeficiency virus type 1 group M subtype B, UniProt P03366).
T1 construct: human immunodeficiency virus-1 reverse transcriptase (HIV-1 RT)
It counts as biochemical. Particulars: no unit or quantity printed. As to the method:
as §1
Thus, extracts, fractions and isolated compounds of plants were evaluated against three basic disease states: cancer, AIDS and malaria according to the published and established protocols and procedures. […] ((Angerhofer, Advances in Natural Products Chemistry, ed. Atta-ur-Rahman, pp 311-329 (1992), Monks et al., J. Nat'l Cancer Inst. 83: 11, 757-766 (1991), Tan et al., J. Nat. Product 54:143-154 (1991), Tan et al., Biochem. Biophysics. Res. Commun. 185:370-378 (1992), Geran et al., Cancer Chemother. Rep., Part 3, 3: 1-17 (1972), Skehan et al., J. Nat'l Cancer Inst. 82:1107-1112 (1990).)

Data set [9] concerns D6 clone of P. falciparum. Particulars: Vennestrom and Klayman, 1988; read-out: literature IC50 against D6 clone of P. falciparum; cited from earlier work.
Data set [10] deals with Colon, Col 2 human cancer cell line. Particulars: cited from earlier work.

Molecules are shown by their SMILES. Where two headings read alike, the source gives them in different places.

With `COc1ccc2cc3[n+](cc2c1OC)CCc1cc2c(cc1-3)OCO2` [berberine], the IC50 was 3.2 µM in [1] (Plasmodium falciparum, W2, read-out: IC50 against W2 clone of P. falciparum); 440 nM in data set [2]; 2740 nM in data set [3]; 11.9 µM in [4]; 1100 nM in data set [5] (Plasmodium falciparum, D6, read-out: IC50 against D6 clone of P. falciparum); 25 µM in [6]. For the same molecule, the concentration for half-maximal inhibition (IC50) was greater than 59.5 µM in [7] (Homo sapiens, cancer cell lines other than lung, read-out: IC50 values, other cancer cell lines tested); 420 nM in [9]; 40 µM in data set [10]. Besides, the “selectivity index (SI), W2” value in data set [1] (W2 clone) was 18.7. In data set [5] (D6 clone), the “selectivity index (SI), D6” value is listed as 53.6. Moreover, the “anti-HIV activity against HIV-1 RT, value” in [8] came out at 353.3.
In the case of `COc1ccc2c(c1OC)C(=O)N1CCc3cc4c(cc3C(=O)C21O)OCO4` (racemic) [(±)-Chilenine], the half-maximal inhibitory concentration (IC50) in data set [7] (all cell lines of the panel, read-out: IC50 values against all of the human cancer cell lines tested) lay in the range of 15.7 to 33.4 µM.

One may read the IC50 as the concentration needed to halve the response being measured.
